Laboratory results published in paper PMC6261607, “Novel high–throughput myofibroblast assays identify agonists with therapeutic potential in pulmonary fibrosis that act via EP2 and EP4 receptors” (PLoS ONE, 2018).
Read-outs that look alike come from different tables or passages of the source.

Columns and labels:
[1] = tested on: normal human lung fibroblasts (NHLF); assay: Phenotypic high-content assay (HCA) of TGF–β1–induced fibroblast–to–myofibroblast differentiation; type: cell-based; conditions: for IC50: 5 ng/ml TGF–β1 for 48 h, compound added with TGF–β1, mean ± SD, read-out: HCA IC50; for inhibition at 10 µM: read-out: Effect HCA at 10 µM [% inhibition], 10 µM compound, 5 ng/ml TGF–β1, 48 h
In short: (§1)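 NHLF starved 24 h in serum-free basal medium with 0.1% BSA, then given compounds together with 5 ng/ml TGF-β1 for 48 h (0.6% DMSO). Methanol-fixed cells imaged for DAPI, α-SMA and FN; an SVM trained on ±TGF-β1 controls classified each cell, giving per-well % myofibroblast differentiation and nuclear counts.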

[2] = tested on: α–SMA protein in NHLF cells; assay: RapidFire MS/MS quantification of α–SMA (IPQA), standard assay; type: cell-based, human
Protocol: (§2) Cell culture medium was removed and cells were lysed on ice by adding 5 μl / well of pre–cooled protein extraction buffer containing 10 mM Tris–HCl (pH 8.0), 6 M urea and 2 M thiourea and shaking on ice on a plate shaker at 600 rpm for 30 min.
(§3) Cell lysate was transferred to a 96–well polypropylene–PCR–plate. 15 μl / well denaturation buffer (6 M urea, 50 mM ammonium bicarbonate) and 2 μl / well of 50 mM TCEP were added and samples were denatured for 1 h at 60°C using the Veriti 96–well Fast Thermal Cycler System (Applied Biosystem) with a heated lid. Plates were allowed to cool to RT. Subsequently, 2 μl of 100 mM iodoacetamide were added per well to derivatize cysteine residues. Plates were then sealed and vortexed for 2 min in the dark and incubated for 30 min at 37°C in a thermal cycler with a heated lid. 90 μl of 50 mM ammonium bicarbonate pH 7.8 were added, followed by the addition of 10 μl of trypsin at 0.02 μg / ml. Samples were trypsin–digested overnight at 37°C in a thermal cycler with heated lid. […] Samples were desalted under vacuum using an Oasis HLB 96–well (30 μm particle size, 5 mg sorbent / well) reverse phase cartridge according to the manufacturer’s instructions and eluted with 170 μl of 90% acetonitrile, 0.1% formic acid. Samples were dried down with a flow of nitrogen at 40°C, left to cool to RT and re–suspended in 40 μl 5% acetonitrile, 0.1% formic acid on a plate shaker set to 1400 rpm for 5 min. Plates were centrifuged at 4,000 rpm for 10 min and 2 times 12 μl / well of supernatant were transferred into separate 96–well plates (Greiner Bio–One), sealed and stored at 4°C until analyzed by MS / MS.
(§4) Surrogate tryptic peptides were chosen for detection of COL1 (COL1A1), α–SMA (ACTA) and tubulin (TBA1A1) and crude synthetic peptides were purchased from Thermo Fischer. After several rounds of optimization following standard workflows, […] (COL1 / COL1A1), […] (α–SMA / ACTA) and […] LC–MS / MS analysis was performed on a RapidFire™ RF360 system (Agilent Technologies) coupled to an API 5500 (ABSciex) with positive ion electrospray ionization. […] Detection was performed using multiple reaction monitoring (MRM) mode to monitor parent⟶product ion transitions (m / z). […] The source parameters were curtain gas (CUR) nitrogen: 20 psig; collision gas (CAD): 7 psig; ion source gas 1: 50.0 psig; ion source gas 2: 50.0 psig; ion spray voltage (IS): 5500 V; turbo heater temperature (TEM): 600°C; entrance potential (EP): 10V. Peak areas for COL1A1 and ACTA were normalized by dividing by TBA1A peak area.

[3] = tested on: COL1 protein in TGF–β1–induced NHLF myofibroblasts; assay: MS/MS COL1, NHLF myofibroblast reversal assay; type: cell-based, human; conditions: Homo sapiens, Col1
Protocol: as §2, §3, §4
(§5) To identify compounds with potential to revert differentiated myofibroblasts to fibroblasts the assay procedures were modified. After 24 h starvation, NHLF cells were stimulated with 5 ng / ml TGF–β1 for 24 h. At t = 24 h TGF–β1 was removed and either vehicle (DMSO) or compounds were added and incubated with the cells for a further 72 h.

[4] = tested on: α–SMA protein in TGF–β1–induced NHLF myofibroblasts; assay: MS/MS α–SMA, NHLF myofibroblast reversal assay; type: cell-based, human; conditions: Homo sapiens
Protocol: as §2, §3, §4, §5

[5] = tested on: normal human lung fibroblasts (NHLF); assay: Nuclear count in the HCA, standard assay; type: cell-based; conditions: standard HCA, NHLF, 5 ng/ml TGF–β1, 48 h, read-out: Nuclear count IC50
In short: as §1

[6] = Homo sapiens, Fibroblast, 48 h, NHLF
[7] = Homo sapiens, NHLF, 5 ng/ml TGF–β1, 48 h, representative experiment of supplementary figure, read-out: IC50 on α–SMA (curve of a single experiment)
[8] = Homo sapiens, NHLF, 5 ng/ml TGF–β1, lysed 48 h after TGF–β1, normalized to tubulin, mean ± SD, read-out: MS / MS α–SMA IC50
[9] = NHLF pre–stimulated 24 h with 5 ng/ml TGF–β1, representative experiment, S7 Fig E, read-out: IC50, reversal of COL1 (curve of a single experiment)
[10] = reversal assay: 24 h 5 ng/ml TGF–β1, washed, 72 h compound, normalized to tubulin, read-out: MS / MS COL1 IC50
[11] = reversal assay: 24 h 5 ng/ml TGF–β1, washed, 72 h compound, normalized to tubulin, read-out: MS / MS α–SMA IC50
[12] = NHLF pre–stimulated 24 h with 5 ng/ml TGF–β1, representative experiment, S7 Fig D, read-out: IC50, reversal of α–SMA (curve of a single experiment)

Compound | IC50 [1, 6] [nM] | inhibition at 10 µM ([1]; Homo sapiens, Fibroblast) [%] | IC50 ([1]; NHLF) [nM] | IC50 [2, 7] [nM] | IC50 [2, 8] [nM] | effect on basal α–SMA expression ([2]; NHLF in the absence of TGF–β1) | IC50 [3, 9] [nM] | IC50 [3, 10] [nM] | IC50 [4, 11] [nM] | IC50 ([5]; Homo sapiens, Fibroblast, 48 h) [nM] | IC50 [5] [nM] | concentrations that reduced cell surface area (CellMask Orange stain) ([1]; HCA, NHLF) [nM] | IC50 [4, 12] [nM] | IC50 ([2]; NHLF, 5 ng/ml TGF–β1, lysed 48 h after TGF–β1, normalized to tubulin, mean ± SD, read-out: MS / MS α–SMA IC50) [nM] | EC50 of myofibroblast differentiation in HCA ([1]; NHLF, 48 h, mean ± SD (n = 7)) [ng/mL] | α-SMA / tubulin ratio ([2]; NHLF, 5 ng/mL TGF-β1) | EC50 of α–SMA protein increase ([2]; NHLF, 48 hours, MS/MS (n = 8)) [ng/mL] | increase of α–SMA protein ([2]; NHLF, at 48 hours)
CCCCC[C@H](O)/C=C/[C@H]1[C@H](O)CC(=O)[C@@H]1CCCCCCC(=O)O [Alprostadil] | 9 | 97 | 8.6 ± 10 | 0.6 | 1.9 ± 1.6 | no effect | 2 | 1.5 ± 0.7 | 1 | > 25000 | > 50000 |  |  |  |  |  |  | 
C[C@]12CC[C@H](O)C[C@H]1CC[C@@H]1[C@@H]2C[C@@H](O)[C@]2(C)[C@@H](C3=CC(=O)OC3)CC[C@]12O [Digoxigenin] | 220 | 100 |  |  | 38 ± 6 |  |  | 54 | 48 | > 25000 | 19000 | ≥ 1250 |  |  |  |  |  | 
Cc1cccc(-c2[nH]c(CNc3ccccc3F)nc2-c2ccc3ncnn3c2)n1 [EW–7197] | 80 ± 30 |  | 82 ± 30 |  | 51 ± 17 |  | 103 | 82 ± 30 | 73 ± 31 | > 25000 |  |  | 51 |  |  |  |  | 
CC(C)(C)c1ccc(CN(Cc2cccc(OCC(=O)O)c2)S(=O)(=O)c2cccnc2)cc1 [Evatanepag] | 82 ± 110 |  |  | 5.5 | 26 ± 29 |  |  | 24 | 16 | > 50000 |  |  |  |  |  |  |  | 
O=C(CC1NCCCC1O)Cn1cnc2cc(Br)c(Cl)cc2c1=O (stereo not drawn) [Halofuginone] | 690 ± 320 |  |  | 24 | 27 ± 4 |  | 59 | 116 ± 81 | 102 ± 87 | > 46000 |  |  | 40 |  |  |  |  | 
O=C1CC[C@H](/C=C/[C@@H](O)Cc2ccccc2)N1CCCCCCc1nn[nH]n1 [Merck–19a] |  |  |  |  |  |  |  |  |  |  |  |  |  | 108 ± 87 |  |  |  | 
COC(=O)c1ccc2c(c1)NC(=O)/C2=C(\Nc1ccc(N(C)C(=O)CN2CCN(C)CC2)cc1)c1ccccc1 [Nintedanib] | 760 ± 130 |  |  |  | 500 ± 120 |  |  | 626 | > 10000 | 1400 |  |  |  |  |  |  |  | 
CCCCC[C@H](O)/C=C/[C@H]1[C@H](O)CC(=O)[C@@H]1C/C=C\CCCC(=O)O [PGE2, prostaglandin E2] |  |  |  | 0.3 | 1.2 ± 1.2 |  |  | 0.4 | 0.8 | > 2500 |  |  | 0.82 |  |  |  |  | 
TGF–β1: transforming growth factor–β1, stimulus of myofibroblast differentiation |  |  |  |  |  |  |  |  |  |  |  |  |  |  | 0.02 ± 0.01 | 0.51 ± 0.06 | 0.07 ± 0.01 | about 3 fold
